Assay results published in PubChem BioAssay AID2060899 (Molecular Pharmacology Branch, DTP, NCI, 2025).

Tested on: 565726-208-R1-J5-PDC complex spheroids, growth inhibition
Experiment: Anticancer human tumor 565726-208-R1-J5-PDC patient-derived pancreatic adenocarcinoma cell line growth inhibition [RAS]
Conditions: for IC50: curve of first compound; for viability, T/C: stronger effect = lower value
Outline: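 Multi-cell-type spheroids: tumor cells plus HUVEC endothelial cells and mesenchymal stem cells. RAS-pathway inhibitors were combined with targeted agents, each dosed in half-log steps down from clinical Cmax, or from 10 microM when Cmax was unknown.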

[1] = second compound 0.0316 µM, first compound 0.0316 µM
[2] = second compound 0.0316 µM, first compound 0.1 µM
[3] = second compound 0.0316 µM, first compound 0.316 µM
[4] = second compound 0.0316 µM, first compound 1 µM
[5] = second compound 0.1 µM, first compound 0.0316 µM
[6] = second compound 0.1 µM, first compound 0.1 µM
[7] = second compound 0.1 µM, first compound 0.316 µM
[8] = second compound 0.1 µM, first compound 1 µM
[9] = second compound 0.316 µM, first compound 0.0316 µM
[10] = second compound 0.316 µM, first compound 0.1 µM
[11] = second compound 0.316 µM, first compound 0.316 µM
[12] = second compound 0.316 µM, first compound 1 µM
[13] = second compound 1 µM, first compound 0.0316 µM
[14] = second compound 1 µM, first compound 0.1 µM
[15] = second compound 1 µM, first compound 0.316 µM
[16] = second compound 1 µM, first compound 1 µM
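Further: spheroids exposed to compounds for seven days before readout.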
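Wherever viability, T/C is given: 100% = DMSO vehicle control viability.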

For `C=CC(=O)Nc1cc(Nc2nccc(-c3cn(C)c4ccccc34)n2)c(OC)cc1N(C)CCN(C)C` + C#Cc1c(F)ccc2cc(O)cc(-c3ncc4c(N5CC6CCC(C5)N6)nc(OCC56CCCN5CC(F)C6)nc4c3F)c12, which IC50 (second compound 0.0316 µM) is on record?
Its IC50 is greater than 1 µM.

And the IC50 (second compound 0.1 µM)?
Its IC50 is greater than 1 µM.

And the IC50 (second compound 0.316 µM)?
The IC50 was greater than 1 µM.

And the IC50 (second compound 1 µM)?
Its IC50 is greater than 1 µM.

And the IC50 (second compound 3.16 µM)?
The IC50 was greater than 1 µM.

What about the IC50 (second compound 10 µM) of the same compound?
Its IC50 is 0.0709 µM.

And the viability, T/C (second compound 0.0316 µM, first compound 0.00316 µM)?
The viability, T/C was 120%.

What about the viability, T/C (second compound 0.0316 µM, first compound 0.01 µM) of the same compound?
Its viability, T/C is 139%.

What about the viability, T/C [1] of the same compound?
Its viability, T/C is 96.1%.

And the viability, T/C [2]?
The viability, T/C was 101%.

And the viability, T/C [3]?
Its viability, T/C is 130%.

What about the viability, T/C [4] of the same compound?
Its viability, T/C is 103%.

What about the viability, T/C (second compound 0.1 µM, first compound 0.00316 µM) of the same compound?
Its viability, T/C is 113%.

And the viability, T/C (second compound 0.1 µM, first compound 0.01 µM)?
Its viability, T/C is 144%.

And the viability, T/C [5]?
Its viability, T/C is 102%.

And the viability, T/C [6]?
The viability, T/C was 92.3%.

And the viability, T/C [7]?
Its viability, T/C is 121%.

What about the viability, T/C [8] of the same compound?
The viability, T/C was 97.5%.

And the viability, T/C (second compound 0.316 µM, first compound 0.00316 µM)?
Its viability, T/C is 127%.

What about the viability, T/C (second compound 0.316 µM, first compound 0.01 µM) of the same compound?
Its viability, T/C is 130%.

And the viability, T/C [9]?
Its viability, T/C is 88.9%.

What about the viability, T/C [10] of the same compound?
The viability, T/C was 77.6%.

And the viability, T/C [11]?
The viability, T/C was 113%.

What about the viability, T/C [12] of the same compound?
The viability, T/C was 98.1%.

What about the viability, T/C (second compound 1 µM, first compound 0.00316 µM) of the same compound?
Its viability, T/C is 138%.

And the viability, T/C (second compound 1 µM, first compound 0.01 µM)?
Its viability, T/C is 110%.

What about the viability, T/C [13] of the same compound?
Its viability, T/C is 76.7%.

And the viability, T/C [14]?
The viability, T/C was 68.1%.

And the viability, T/C [15]?
Its viability, T/C is 87.1%.

What about the viability, T/C [16] of the same compound?
Its viability, T/C is 84.7%.

And the viability, T/C (second compound 3.16 µM, first compound 0.00316 µM)?
Its viability, T/C is 120%.

And the viability, T/C (second compound 3.16 µM, first compound 0.01 µM)?
The viability, T/C was 85.2%.

And the viability, T/C (second compound 3.16 µM, first compound 0.0316 µM)?
Its viability, T/C is 65%.

And the viability, T/C (second compound 3.16 µM, first compound 0.1 µM)?
The viability, T/C was 51.2%.

And the viability, T/C (second compound 3.16 µM, first compound 0.316 µM)?
Its viability, T/C is 72%.

And the viability, T/C (second compound 3.16 µM, first compound 1 µM)?
Its viability, T/C is 74%.

And the viability, T/C (second compound 10 µM, first compound 0.00316 µM)?
Its viability, T/C is 89.4%.

What about the viability, T/C (second compound 10 µM, first compound 0.01 µM) of the same compound?
The viability, T/C was 86.5%.

What about the viability, T/C (second compound 10 µM, first compound 0.0316 µM) of the same compound?
The viability, T/C was 64.1%.

And the viability, T/C (second compound 10 µM, first compound 0.1 µM)?
Its viability, T/C is 41.2%.

What about the viability, T/C (second compound 10 µM, first compound 0.316 µM) of the same compound?
The viability, T/C was 50.7%.

What about the viability, T/C (second compound 10 µM, first compound 1 µM) of the same compound?
The viability, T/C was 40.1%.

What does the source list for `CC(C)NCC(C(=O)N1CCN(c2ncnc3c2C(C)CC3O)CC1)c1ccc(Cl)cc1` (centres undefined) + C=CC(=O)N1CCN(c2nc(OCC3CCCN3C)nc3c(F)c(-c4nc(N)cc(C)c4C(F)(F)F)c(Cl)cc23)C(C)C1?
IC50 (second compound 0.00316 µM): > 10 µM; IC50 (second compound 0.01 µM): > 10 µM; IC50 (second compound 0.0316 µM): > 10 µM; IC50 (second compound 0.1 µM): > 10 µM; IC50 (second compound 0.316 µM): > 10 µM; IC50 (second compound 1 µM): > 10 µM; viability, T/C (second compound 0.00316 µM, first compound 0.0316 µM): 90.5%; viability, T/C (second compound 0.00316 µM, first compound 0.1 µM): 152%; viability, T/C (second compound 0.00316 µM, first compound 0.316 µM): 89%; viability, T/C (second compound 0.00316 µM, first compound 1 µM): 91%; viability, T/C (second compound 0.00316 µM, first compound 3.16 µM): 93.3%; viability, T/C (second compound 0.00316 µM, first compound 10 µM): 110%; viability, T/C (second compound 0.01 µM, first compound 0.0316 µM): 133%; viability, T/C (second compound 0.01 µM, first compound 0.1 µM): 153%; viability, T/C (second compound 0.01 µM, first compound 0.316 µM): 91%; viability, T/C (second compound 0.01 µM, first compound 1 µM): 78.3%; viability, T/C (second compound 0.01 µM, first compound 3.16 µM): 104%; viability, T/C (second compound 0.01 µM, first compound 10 µM): 127%; viability, T/C [1]: 125%; viability, T/C [2]: 160%; viability, T/C [3]: 90.2%; viability, T/C [4]: 89.8%; viability, T/C (second compound 0.0316 µM, first compound 3.16 µM): 93.5%; viability, T/C (second compound 0.0316 µM, first compound 10 µM): 125%; viability, T/C [5]: 176%; viability, T/C [6]: 154%; viability, T/C [7]: 93.1%; viability, T/C [8]: 85.4%; viability, T/C (second compound 0.1 µM, first compound 3.16 µM): 80.6%; viability, T/C (second compound 0.1 µM, first compound 10 µM): 120%; viability, T/C [9]: 147%; viability, T/C [10]: 153%; viability, T/C [11]: 88.5%; viability, T/C [12]: 96.6%; viability, T/C (second compound 0.316 µM, first compound 3.16 µM): 73.4%; viability, T/C (second compound 0.316 µM, first compound 10 µM): 118%; viability, T/C [13]: 175%; viability, T/C [14]: 155%; viability, T/C [15]: 130%; viability, T/C [16]: 95.1%; viability, T/C (second compound 1 µM, first compound 3.16 µM): 80.7%; viability, T/C (second compound 1 µM, first compound 10 µM): 95.9%
